This note sets out measurements from patent US20230026277A1, “COMPOSITION FOR PREVENTION, ALLEVIATION, OR TREATMENT OF RESPIRATORY DISEASE” (MICROX CO., LTD., priority 2019, published 2023).

Assay [1] deals with p-cPLA and p-p38 proteins. Kind of assay: Western blot of p-cPLA and p-p38 in lung tissue of asthma-induced mice. The assay is classed as in vivo. The protocol:
(§1) Also, on days 21 and 28 from the experimental starting date, the mice were put into a plastic box (Plexiglas (Rohm & Haas, Philadelphia, Pa.) exposure chamber; 24.5 cm×40.5 cm×15.0 cm), and 1.5% ovalbumin was evaporated using an ultrasonic nebulizer (NE-U12; output 0.8 mL/min; Omron, Japan), and injected into the box for 30 minutes so that the mice inhaled the evaporated ovalbumin (secondary challenge).
A tissue was extracted from each of the mice manufactured in Experimental Method 1, and finely ground to a cell level. Thereafter, the cells were lysed in a cell lysis buffer containing a protease inhibitor to obtain a cell lysate. The cell lysate was centrifuged to obtain protein. Then, an equivalent amount of the proteins obtained from the cells were loaded on an SDS-PAGE gel and electrophoresed. The proteins present in the electrophoresed gel were transferred to a PVDF membrane. […] The PVDF membrane was washed three times with a TBS-T buffer, and visualized and quantified using an ECL Western blotting detection reagent. […]
Small interfering RNA (siRNA; hereinafter referred to as “MKP-1 siRNA”) against RNA encoding an MKP-1 protein, and control siRNA strands were purchased from SANTA CRUZ (USA). […] An effect of the MKP-1 siRNA interference was determined by measuring an expression level of the MKP-1 protein in the lung tissue through Western blot analysis. […]
For orientation: In western blotting, separated proteins are transferred to a membrane and probed.

The subject of the next assay is NF-κB and TNF-α. Kind of assay: NF-κB (Western blot) and TNF-α (ELISA) in asthma-induced mice. Type of assay: in vivo. The protocol:
as §1
A level of cytokines in the bronchoalveolar lavage fluid obtained in Experimental Method 2 was measured using an ELISA kit. Here, ELISA kits specifically manufactured for TNF-α, IL-4, IL-5, and IL-13 were used.
A tissue was extracted from each of the mice manufactured in Experimental Method 1, and finely ground to a cell level. Thereafter, the cells were lysed in a cell lysis buffer containing a protease inhibitor to obtain a cell lysate. The cell lysate was centrifuged to obtain protein. Then, an equivalent amount of the proteins obtained from the cells were loaded on an SDS-PAGE gel and electrophoresed. The proteins present in the electrophoresed gel were transferred to a PVDF membrane. The PVDF membrane was washed, and added to a blocking buffer in which 5% skim milk was included in a TBS-T buffer, and incubated at room temperature. Then, the PVDF membrane was incubated at room temperature with an antibody diluted 1:1,000 in a TBS-T buffer containing 3% BSA. Then, the PVDF membrane was washed with a TBS-T buffer, and incubated at room temperature for an hour with a dilute solution containing HRP-bound IgG. The PVDF membrane was washed three times with a TBS-T buffer, and visualized and quantified using an ECL Western blotting detection reagent.
Here, antibodies specific to elastin, caspase-3, collagen, MKP-1, p-cPLA, p-p38, NF-κB(p65), CK2α, GAPDH, or β-actin were used in the Western blot.
Specifically, the secondary challenge (ovalbumin injection) was performed according to the method described above in Experimental Method 1, and the lungs were extracted after an hour, and then measured according to the method described above in Experimental Method 7. The results are shown in A of FIG. 9. Also, the level of TNF-α corresponding to an NK-κB-dependent cytokine was measured by ELISA according to the method described above in Experimental Method 4. The results are shown in B of FIG. 9. […]
The secondary challenge (ovalbumin injection) was performed according to the method described above in Experimental Method 1, and the lungs were extracted after 30 or 60 minutes, and then measured according to the method described above in Experimental Method 7. […] Also, the level of TNF-α corresponding to an NK-κB-dependent cytokine was measured by ELISA according to the method described above in Experimental Method 4. […]

For the compound `CC(=O)NC(=O)CC[C@H](NC(C)=O)C(=O)O` [Preparation Example 3, 2,5-diacetamido-5-oxopentanoic acid], the “levels of the p-cPLA and p-p38 proteins” value in assay [1] (lung tissue, oral daily 200, 500 or 1,000 μg/kg/day, 10 and 30 minutes after secondary challenge, FIG. 7) is recorded as “decreased depending on the concentration”. In assay [1] (with MKP-1 siRNA treatment, same conditions as [5-1], FIG. 8), the “phosphorylation levels of cPLA2 and p38” value is “increased”. The “effect for reducing the levels of NF-κB and TNF-α” value in the assay on NF-κB and TNF-α (400 μg/kg/day with siRNA specific to MKP-1, FIG. 9) is recorded as “not observed”. For the same compound, the “levels of NF-κB and TNF-α” value in the assay with NF-κB and TNF-α (oral daily 400 μg/kg/day, an hour after secondary challenge, FIG. 9A and B) is “decreased”.
